Experimental data from PMC3113660 (Journal of medicinal chemistry, 2010).
Read-outs that look alike come from different tables or passages of the source.

How the values were obtained:
[1] = tested on: Plasmodium falciparum (K1, resistant to chloroquine); assay: In vitro growth inhibition assay of P. falciparum; assay type: cell-based; conditions: for IC50: Plasmodium falciparum; for fold more active against P. falciparum: relative to diimidazoline 3
[2] = tested on: Leishmania donovani (MHOM/SD/62/1S-CL2D) axenic amastigotes; assay: Antileishmanial assay; assay type: cell-based; conditions: for activity against L. donovani (in words): in vitro, axenic amastigotes
[3] = tested on: Trypanosoma brucei rhodesiense (STIB900); assay: In vitro growth inhibition assay of T. brucei rhodesiense; assay type: cell-based; conditions: for SIT, selectivity index for T. brucei rhodesiense: ratio IC50 (L6)/IC50 (T. brucei rhodesiense)
[4] = tested on: T. brucei rhodesiense STIB900; assay type: in vivo, mice; conditions: for cures: number of mice that survive and are parasite free for 60 days; for toxicity in the in vivo model (mice died due to toxicity): infected mice
[5] = In vitro cytotoxicity assay; assay type: cell-based, rat; conditions: rat
L6 rat myoblast cells = assay: In vitro cytotoxicity assay; assay type: cell-based; conditions: L6 cells; relative to 5,5′-disubstituted analogue 1
[6] = K1, read-out: antiplasmodial IC50, P. falciparum, in vitro

Cl.Cl.N=C(N)c1cccc(-n2cc(-c3cc(C(=N)N)ccc3O)nn2)c1 [Compound 13, 4-(5-Amidino-2-hydroxyphenyl)-1-(3-amidinophenyl)-1H-1,2,3-triazole Dihydrochloride]
IC50 [1, 6]: < 58 nM | activity against L. donovani (in words) [2]: active | fold less active against T. brucei rhodesiense ([3]; relative to diamidine 1): 2 fold

Cl.Cl.N=C(N)c1cccc(-n2cc(-c3ccc(C(=N)N)cc3O)nn2)c1 [Compound 43, 4-(4-Amidino-2-hydroxyphenyl)-1-(3-amidinophenyl)-1H-1,2,3-triazole Dihydrochloride]
cures ([4]; 4 × 5 mg/kg ip): curing at least two out of four animals | IC50 [1, 6]: < 58 nM | SIT, selectivity index for T. brucei rhodesiense [3]: >26250

COc1ccc(C2=NCCN2)cc1-c1cn(-c2cccc(C3=NCCN3)c2)nn1.Cl.Cl [Compound 9, 4-[5-(4,5-Dihydro-1H-imidazol-2-yl)-2-methoxyphenyl]-1-[3-(4,5-dihydro-1H-imidazol-2-yl)phenyl]-1H-1,2,3-triazole Dihydrochloride]
cures ([4]; 4 × 1 mg/kg ip): no cures | IC50 [1, 6]: < 58 nM | fold more active against P. falciparum [1]: 26 fold | activity against L. donovani (in words) [2]: active | SIT, selectivity index for T. brucei rhodesiense [3]: >29333 | times as active against T. brucei rhodesiense ([3]; relative to unsubstituted analogue 3): ~2350 times

Cl.Cl.N=C(N)c1cccc(-c2cn(-c3cccc(C(=N)N)c3)nn2)c1 [Compound 1, 1,4-Bis(3-amidinophenyl)-1H-1,2,3-triazole Dihydrochloride]
cures ([4]; 4 × 5 mg/kg ip): no activity | IC50 [1, 6]: < 58 nM | activity against L. donovani (in words) [2]: active

COc1cc(C(=N)N)ccc1-c1cn(-c2cccc(C(=N)N)c2)nn1.Cl.Cl [Compound 37, 4-(4-Amidino-2-methoxyphenyl)-1-(3-amidinophenyl)-1H-1,2,3-triazole Dihydrochloride]
cures ([4]; 4 × 1 mg/kg ip): no cures | IC50 [1, 6]: < 58 nM

Cl.Cl.N=C(N)c1ccc(-c2cn(-c3cccc(C(=N)N)c3)nn2)cc1 [Compound 31, 1-(3-Amidinophenyl)-4-(4-amidinophenyl)-1H-1,2,3-triazole Dihydrochloride]
cures ([4]; 4 × 5 mg/kg ip): curing one out of four mice

Nc1nc(N)nc(Nc2ccc([As]3SCC(CO)S3)cc2)n1 (centres unmarked) [melarsoprol]
IC50 at 70 h [5]: 7780 nM

Cl.Cl.N=C(N)c1ccc(-n2cc(-c3cc(C(=N)N)ccc3O)nn2)cc1 [Compound 28, 4-(5-Amidino-2-hydroxyphenyl)-1-(4-amidinophenyl)-1H-1,2,3-triazole Dihydrochloride]
IC50 [1, 6]: < 58 nM | activity against L. donovani (in words) [2]: active

COc1ccc(C(=N)N)cc1-c1cn(-c2ccc(C(=N)N)cc2)nn1.Cl.Cl [Compound 22, 4-(5-Amidino-2-methoxyphenyl)-1-(4-amidinophenyl)-1H-1,2,3-triazole Dihydrochloride]
cures ([4]; 4 × 5 mg/kg ip): curing at least two out of four animals | IC50 [1, 6]: < 58 nM | activity against L. donovani (in words) [2]: active | SIT, selectivity index for T. brucei rhodesiense [3]: >24750

COc1cc(C(=N)N)ccc1-n1cc(-c2cccc(C(=N)N)c2)nn1.Cl.Cl [Compound 19, 1-(4-Amidino-2-methoxyphenyl)-4-(3-amidinophenyl)-1H-1,2,3-triazole Dihydrochloride]
IC50 [1, 6]: < 58 nM | activity against L. donovani (in words) [2]: active | SIT, selectivity index for T. brucei rhodesiense [3]: >17455

CC(C)NC(=N)c1ccc(-c2cn(-c3ccc(C(=N)NC(C)C)cc3)nn2)cc1.Cl.Cl [Compound 47, 1,4-Bis(4-N-isopropylamidinophenyl)-1H-1,2,3-triazole Dihydrochloride]
toxicity in the in vivo model (mice died due to toxicity) ([4]; 4 × 5 mg/kg ip): toxic | IC50 [1, 6]: < 58 nM

Cl.Cl.N=C(N)c1ccc(-c2cn(-c3ccc(C(=N)N)cc3)nn2)cc1 [Compound 46, 1,4-Bis(4-amidinophenyl)-1H-1,2,3-triazole Dihydrochloride]
cures ([4]; 4 × 0.5 mg/kg ip): no cures | IC50 [1, 6]: < 58 nM | fold increased cytotoxicity (L6 rat myoblast cells): ~25 fold

Cl.Cl.Oc1ccc(C2=NCCN2)cc1-c1cn(-c2ccc(C3=NCCN3)cc2)nn1 [Compound 30, 4-[5-(4,5-Dihydro-1H-imidazol-2-yl)-2-hydroxyphenyl]-1-[4-(4,5-dihydro-1H-imidazol-2-yl)phenyl]-1H-1,2,3-triazole Dihydrochloride]
IC50 [1, 6]: < 58 nM | activity against L. donovani (in words) [2]: active

CCN(CC)CCCC(C)Nc1ccnc2cc(Cl)ccc12 (centres unmarked) [chloroquine, reference compound]
IC50 ([1]; K1, read-out: P. falciparum IC50): 124 nM | IC50 at 70 h [5]: 117000 nM

N=C(N)c1ccc(OCCCCCOc2ccc(C(=N)N)cc2)cc1 [pentamidine, 1,5-bis(4-amidinophenoxy)pentane, reference compound]
IC50 ([2]; Leishmania donovani, read-out: L. donovani IC50): 1800 nM

COc1cc(C(=N)N)ccc1-c1cn(-c2ccc(C(=N)N)cc2)nn1.Cl.Cl [Compound 52, 4-(4-Amidino-2-methoxyphenyl)-1-(4-amidinophenyl)-1H-1,2,3-triazole Dihydrochloride]
cures ([4]; 4 × 5 mg/kg ip): curing at least two out of four animals

COc1cc([C@@H]2c3cc4c(cc3[C@H](O)[C@H]3COC(=O)[C@H]23)OCO4)cc(OC)c1OC [podophyllotoxin]
IC50 at 70 h [5]: 20 nM

COc1ccc(C2=NCCN2)cc1-n1cc(-c2cccc(C3=NCCN3)c2)nn1.Cl.Cl [Compound 6, 1-[5-(4,5-Dihydro-1H-imidazol-2-yl)-2-methoxyphenyl]-4-[3-(4,5-dihydro-1H-imidazol-2-yl)phenyl]-1H-1,2,3-triazole Dihydrochloride]
IC50 [1, 6]: < 58 nM | fold more active against P. falciparum [1]: 12 fold | fold as active against T. brucei rhodesiense ([3]; relative to 2-O-demethylated analogue 12): 13 fold

COc1ccc(C(=N)NC(C)C)cc1-c1cn(-c2ccc(C(=N)NC(C)C)cc2)nn1.Cl.Cl [Compound 23, 4-(5-N-Isopropylamidino-2-methoxyphenyl)-1-(4-N-isopropylamidinophenyl)-1H-1,2,3-triazole Dihydrochloride]
toxicity in the in vivo model (mice died due to toxicity) ([4]; 4 × 5 mg/kg ip, 5 mg/kg): toxic | IC50 [1, 6]: < 58 nM

COc1cc(C(=N)NC(C)C)ccc1-c1cn(-c2cccc(C(=N)NC(C)C)c2)nn1.Cl.Cl [Compound 38, 4-(4-N-Isopropylamidino-2-methoxyphenyl)-1-(3-N-isopropylamidinophenyl)-1H-1,2,3-triazole Dihydrochloride]
IC50 [1, 6]: < 58 nM | fold less active against T. brucei rhodesiense ([3]; relative to diamidine 37): 141 fold

C[C@@H]1CC[C@H]2[C@@H](C)C(=O)O[C@@H]3O[C@@]4(C)CC[C@@H]1[C@]32OO4 [artemisinin, reference compound]
SIP, selectivity index for P. falciparum ([1]; ratio IC50 (L6)/IC50 (P. falciparum)): 75000 | IC50 at 70 h [5]: 450000 nM

COc1cc(C(=N)NC(C)C)ccc1-n1cc(-c2cccc(C(=N)NC(C)C)c2)nn1.Cl.Cl [Compound 20, 1-(4-N-Isopropylamidino-2-methoxyphenyl)-4-(3-N-isopropylamidinophenyl)-1H-1,2,3-triazole Dihydrochloride]
IC50 [1, 6]: < 58 nM | fold less active against T. brucei rhodesiense ([3]; relative to congener 19): 178 fold

Cl.Cl.N=C(N)c1cccc(-c2cn(-c3cc(C(=N)N)ccc3O)nn2)c1 [Compound 10, 1-(5-Amidino-2-hydroxyphenyl)-4-(3-amidinophenyl)-1H-1,2,3-triazole Dihydrochloride]
fold less potent against P. falciparum ([1]; relative to 2-methoxy analogue 4): 320 fold | fold less potent against P. falciparum ([1]; relative to dication 1): 425 fold | fold less active against T. brucei rhodesiense ([3]; relative to diamidine 1): 600 fold

COc1ccc(C(=N)N)cc1-c1cn(-c2cccc(C(=N)N)c2)nn1.Cl.Cl [Compound 7, 4-(5-Amidino-2-methoxyphenyl)-1-(3-amidinophenyl)-1H-1,2,3-triazole Dihydrochloride]
IC50 [1, 6]: < 58 nM | fold less active against T. brucei rhodesiense ([3]; relative to diamidine 1): 20 fold
